The values below are quoted from earlier work in US4451566A, “Methods and apparatus for enzymatically producing ethanol” (priority 1981, dated 1984).

A word on the Km: it is the concentration of substrate that gives half-maximal velocity.

The subject of the series is Glucokinase (2.7.1.2), present in liver. Particulars: read-out: KM for d-glucose, phosphorylation of d-glucose with ATP as phosphate donor.

On to `OC[C@H]1OC(O)[C@H](O)[C@@H](O)[C@@H]1O` (stereo partly drawn) [d-glucose], for which the Km is 100 mM.
